From ChEMBL document CHEMBL4184211, “Regioselectivity of thiouracil alkylation: Application to optimization of Darapladib synthesis” (Bioorg Med Chem Lett, 2018)

Key:
[1] = target: T1, Platelet-activating factor acetylhydrolase (Homo sapiens, UniProt Q13093); experiment: (§1) Inhibition of Lp-PLA2 in human plasma LDL fractions using 2-thio platelet-activating factor as substrate by […] dye based spectrophotometry
T1 sequence (Q13093 whole entry): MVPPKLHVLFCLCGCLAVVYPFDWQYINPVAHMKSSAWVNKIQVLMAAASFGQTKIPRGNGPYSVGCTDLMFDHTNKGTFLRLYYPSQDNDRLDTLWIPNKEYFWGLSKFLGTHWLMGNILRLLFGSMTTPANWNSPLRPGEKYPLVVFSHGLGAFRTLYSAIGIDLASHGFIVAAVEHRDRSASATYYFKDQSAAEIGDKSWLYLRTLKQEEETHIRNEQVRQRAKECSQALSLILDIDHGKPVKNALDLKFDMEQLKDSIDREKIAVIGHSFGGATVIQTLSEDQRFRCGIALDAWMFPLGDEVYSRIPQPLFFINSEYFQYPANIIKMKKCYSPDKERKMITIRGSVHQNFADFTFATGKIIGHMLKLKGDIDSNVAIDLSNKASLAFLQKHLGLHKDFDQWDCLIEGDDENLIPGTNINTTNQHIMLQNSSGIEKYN

[2] = target: T2, Platelet-activating factor acetylhydrolase (Homo sapiens) (UniProt Q13093); experiment: as §1
T2 sequence (whole entry): T1 sequence (Q13093 whole entry)

Compound	IC50 ([1]; read-out: IC50) [nM]	inhibition [2]	IC50 [1]
CCN(CC)CCN(Cc1ccc(-c2ccc(C(F)(F)F)cc2)cc1)C(=O)COc1nc(SCc2ccc(F)cc2)nc2c1CCC2	> 100	–	–
CC(C)(C)OC(=O)Cn1c(SCc2ccc(F)cc2)nc(=O)c2c1CCC2	52.4	Dose-dependent effect	–
CC(C)(C)OC(=O)COc1nc(SCc2ccc(F)cc2)nc2c1CCC2	–	–	Not Active
